Data taken from patent US20250163075A1, “HETEROBI[…] PROTEIN […]” (priority 2023, published 2025).

Experiments:
KLHDC2 [1] = biological target: T1, KLHDC2 (Homo sapiens (Human), UniProt Q9Y2U9); test: Time-resolved fluorescence energy transfer (TR-FRET) assay with Bodipy-labeled ligand probe; type: binding
Text: The integration start was set to 100 μs, and the integration time was set to 200 μs. The number of flashes was fixed at 100.

KLHDC2 [2] = biological target: T1, KLHDC2; test: Sypro orange thermal stability (thermal shift) assay; type: binding
Protocol: To identify small molecules that bind to KLHDC2 the Sypro orange thermal stability assay was utilized. […] Assay solution containing 0.5 μM KLHDC2, 25 mM HEPES, 200 mM NaCl and 5% Sypro Orange pH 7.5 was added to a final volume of 20 ul and a final experimental ligand concentration of 50 uM. DMSO alone was included as a negative control and peptide sub2 was included as a positive control at 100 uM. The fluorescence of Sypro orange in each sample was measured on a Quantstudio 5 or a Quantstudio 6 at temperatures ranging from 23 to 75° C. at 0.05° C./second. Data reduction resulting in thermal stability (calculated using the Boltzmann and first derivative minima equations) was completed in the Thermo Scientific protein thermal shift software v1.4.

T1 sequence (Q9Y2U9 whole entry): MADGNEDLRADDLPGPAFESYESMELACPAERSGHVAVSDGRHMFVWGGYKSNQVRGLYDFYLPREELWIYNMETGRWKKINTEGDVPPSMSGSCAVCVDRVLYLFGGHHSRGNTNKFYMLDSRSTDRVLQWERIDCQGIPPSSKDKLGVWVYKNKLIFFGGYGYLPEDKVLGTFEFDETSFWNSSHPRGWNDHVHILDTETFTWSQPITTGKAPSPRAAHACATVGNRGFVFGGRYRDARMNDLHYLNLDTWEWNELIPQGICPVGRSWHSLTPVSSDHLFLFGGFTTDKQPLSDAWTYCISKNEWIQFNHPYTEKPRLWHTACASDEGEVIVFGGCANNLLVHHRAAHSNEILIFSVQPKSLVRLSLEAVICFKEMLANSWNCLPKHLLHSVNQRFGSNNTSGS

Structure (SMILES) | IC50 (KLHDC2 [1]; Table 1) | ΔTm (° C.) 50 μM ligand (KLHDC2 [2]; Table 1, 0.5 μM KLHDC2) | IC50 (KLHDC2 [1]; Table 2) | ΔTm (° C.) 50 μM ligand (KLHDC2 [2]; Table 2, 0.5 μM KLHDC2)
O=C(O)CNC(=O)Cc1csc(-c2cccc3ccccc23)n1 [Compound 12, (2-(2-(Naphthalen-1-yl)Thiazol-4-yl)Acetyl)Glycine] | 8.8 µM | 3.7 ± 0.0 °C | – | –
COCOc1ccc(-c2nc(CC(=O)NCC(=O)O)cs2)c(Cl)c1 [i] | 24.1 µM | 3.52 ± 0.424 °C | – | –
O=C(O)CNC(=O)Cc1csc(-c2ccc3ccn(CCCN4CCNCC4)c3c2)n1 [Compound 24, (2-(2-(1-(3-(Piperazin-1-yl)Propyl)-1H-Indol-6-yl)Thiazol-4-yl)Acetyl)Glycine] | – | – | 1.2 µM | –
COc1ccc2ccc(-c3nc(CC(=O)NCC(=O)O)cs3)cc2c1 [Compound 14, (2-(2-(7-Methoxynaphthalen-2-yl)Thiazol-4-yl)Acetyl)Glycine] | 1.7 µM | 4.3 ± 0.2 °C | – | –
O=C(O)CNC(=O)Cc1csc(-c2ccc3c(c2)NCCO3)n1 [Compound 27, (2-(2-(3,4-Dihydro-2H-Benzo[B][1,4]Oxazin-6-yl)Thiazol-4-yl)Acetyl)Glycine] | 3 µM | – | – | –
O=C(O)CNC(=O)Cc1csc(-c2cccc3ccncc23)n1 [Compound 9, (2-(2-(Isoquinolin-8-yl)Thiazol-4-yl)Acetyl)Glycine] | 20.3 µM | 1.8 ± 0.0 °C | – | –
O=C(O)CNC(=O)Cc1csc(-c2ccc3ccccc3c2)n1 [Compound 8, (2-(2-(Naphthalen-2-yl)Thiazol-4-yl)Acetyl)Glycine] | 3.9 µM | 6.0 ± 0.0 °C | – | –
O=C(O)CNC(=O)Cc1csc(-c2ccc3cc[nH]c3c2)n1 [Compound 23, (2-(2-(1H-Indol-6-yl)Thiazol-4-yl)Acetyl)Glycine] | 1.1 µM | – | – | –
O=C(O)CNC(=O)Cc1csc(-c2ccc3ccccc3c2F)n1 [Compound 13, (2-(2-(1-Fluoronaphthalen-2-yl)Thiazol-4-yl)Acetyl)Glycine] | 1.8 µM | 6.0 ± 0.2 °C | – | –
COCCOc1cccc2ccc(-c3nc(CC(=O)NCC(=O)O)cs3)cc12 [Compound 15A] | – | – | 1.1 µM | 4.3 ± 0.2 °C
O=C(O)CNC(=O)Cc1csc(-c2cccc3cccnc23)n1 [Compound 11, (2-(2-(Quinolin-8-yl)Thiazol-4-yl)Acetyl)Glycine] | 7.1 µM | 2.7 ± 0.4 °C | – | –
O=C(O)CNC(=O)Cc1csc(-c2ccc3cccc(OCCN4CCNCC4)c3c2)n1 [Compound 19, (2-(2-(8-(2-(Piperazin-1-yl)Ethoxy)Naphthalen-2-yl)Thiazol-4-yl)Acetyl)Glycine] | – | – | 1.6 µM | 4.8 ± 0.0 °C
COc1ccc2cc(-c3nc(CC(=O)NCC(=O)O)cs3)ccc2c1 [Compound 10, (2-(2-(6-Methoxynaphthalen-2-yl)Thiazol-4-yl)Acetyl)Glycine] | 9.6 µM | 3.9 ± 0.1 °C | – | –
